Assay results taken from US5686458A, “Quinazoline deriviates for treating peptic ulcer” (Yuhan Corporation, priority 1992, dated 1997).
Several values for one entry are separate records, joined by “and”; a condition that tells them apart may be missing. Identical values can stand only once. Like-named read-outs stand apart in the source and are kept apart here.

How the values were obtained:
[1] = biological target: T1, Proton Pump (H^+ /K^+ ATPase) (Oryctolagus cuniculus, UniProt P27112); assay: Inhibition of Proton Pump (H+/K+ ATPase) Activity, in vitro enzyme reaction (Experiment 1); type: biochemical, New Zealand white rabbit
T1 construct: The microsomes thus obtained were used as an enzyme source of the in vitro enzyme reaction study of proton pump; from tissue; host or cells: rabbit stomach, mucosal scrapings, microsomes (180,000 g pellet)
T1 sequence (P27112 whole entry): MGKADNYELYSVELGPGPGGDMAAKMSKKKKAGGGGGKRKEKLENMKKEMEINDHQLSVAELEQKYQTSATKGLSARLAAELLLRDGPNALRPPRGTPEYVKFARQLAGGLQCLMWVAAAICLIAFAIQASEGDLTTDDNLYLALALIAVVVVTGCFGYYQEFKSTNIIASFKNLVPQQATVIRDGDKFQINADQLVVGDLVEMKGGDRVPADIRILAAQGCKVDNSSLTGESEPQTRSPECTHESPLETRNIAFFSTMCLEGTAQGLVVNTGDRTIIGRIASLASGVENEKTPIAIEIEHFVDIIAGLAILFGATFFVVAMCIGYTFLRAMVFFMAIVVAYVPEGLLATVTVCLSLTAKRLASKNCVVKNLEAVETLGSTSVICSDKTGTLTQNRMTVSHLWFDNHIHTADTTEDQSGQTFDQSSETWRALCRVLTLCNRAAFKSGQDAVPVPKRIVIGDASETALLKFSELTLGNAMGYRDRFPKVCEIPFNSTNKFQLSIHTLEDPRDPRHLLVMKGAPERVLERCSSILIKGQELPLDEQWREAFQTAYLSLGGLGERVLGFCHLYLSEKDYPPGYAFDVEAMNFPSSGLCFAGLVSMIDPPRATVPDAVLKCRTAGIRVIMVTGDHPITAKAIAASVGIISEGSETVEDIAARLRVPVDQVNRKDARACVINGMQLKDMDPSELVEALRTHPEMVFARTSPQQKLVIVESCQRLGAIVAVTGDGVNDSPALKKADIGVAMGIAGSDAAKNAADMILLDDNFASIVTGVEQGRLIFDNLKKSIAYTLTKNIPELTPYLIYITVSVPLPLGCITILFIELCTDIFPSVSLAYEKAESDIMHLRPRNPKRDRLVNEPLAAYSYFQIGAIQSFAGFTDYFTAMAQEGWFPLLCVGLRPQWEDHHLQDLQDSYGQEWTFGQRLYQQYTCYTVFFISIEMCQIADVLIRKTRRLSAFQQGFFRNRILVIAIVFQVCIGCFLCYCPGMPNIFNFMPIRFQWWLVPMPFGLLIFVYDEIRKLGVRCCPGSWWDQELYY
T1 sequence (P18597 whole entry partner): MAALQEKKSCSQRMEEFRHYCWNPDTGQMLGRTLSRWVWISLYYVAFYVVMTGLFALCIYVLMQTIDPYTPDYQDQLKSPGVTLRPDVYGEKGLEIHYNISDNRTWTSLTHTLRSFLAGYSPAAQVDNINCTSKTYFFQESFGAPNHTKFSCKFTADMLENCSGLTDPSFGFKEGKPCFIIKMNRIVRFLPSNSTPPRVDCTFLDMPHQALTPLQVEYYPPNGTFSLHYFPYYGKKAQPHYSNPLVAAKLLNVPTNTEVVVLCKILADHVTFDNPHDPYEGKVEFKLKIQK
Outline: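 Rabbit gastric mucosal microsomes (100 μg/ml) in 50 mM Tris-HCl pH 7.2 with 8 mM MgCl2, 100 mM KCl and 20 mM NH4Cl were preincubated with compound for 15 min at 37 °C. Reaction ran 30 min at 37 °C with 6.7 mM ATP; released phosphate was measured. K+-stimulated activity (Mg/K minus Mg alone) gave IC50 via Litchfield-Wilcoxon.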

[2] = biological target: T2, H^+ /K^+ ATPase, gastric vesicles (Sus scrofa, UniProt P19156); assay: Reversibility of inhibition, Dilution and Washout method (Experiment 4-3); type: biochemical, pig; conditions: for Reversibility of the inhibition of the enzyme activity: conclusion from Table 4; for Inhibition of H+/K+ ATPase activity after Dilution and Washout: diluted 50 times; for Inhibition of H+/K+ ATPase activity after Dilution and Washout / Inhibition of H+/K+ ATPase activity before Dilution and Washout: pH 6.4, Example 34 at 6 μM, omeprazole and SK&F96067 at 60 μM
T2 construct: Gastric vesicles were prepared from pig stomach; from tissue; host or cells: pig stomach, lyophilized gastric vesicles
T2 sequence (P19156 2-1034 limits assumed): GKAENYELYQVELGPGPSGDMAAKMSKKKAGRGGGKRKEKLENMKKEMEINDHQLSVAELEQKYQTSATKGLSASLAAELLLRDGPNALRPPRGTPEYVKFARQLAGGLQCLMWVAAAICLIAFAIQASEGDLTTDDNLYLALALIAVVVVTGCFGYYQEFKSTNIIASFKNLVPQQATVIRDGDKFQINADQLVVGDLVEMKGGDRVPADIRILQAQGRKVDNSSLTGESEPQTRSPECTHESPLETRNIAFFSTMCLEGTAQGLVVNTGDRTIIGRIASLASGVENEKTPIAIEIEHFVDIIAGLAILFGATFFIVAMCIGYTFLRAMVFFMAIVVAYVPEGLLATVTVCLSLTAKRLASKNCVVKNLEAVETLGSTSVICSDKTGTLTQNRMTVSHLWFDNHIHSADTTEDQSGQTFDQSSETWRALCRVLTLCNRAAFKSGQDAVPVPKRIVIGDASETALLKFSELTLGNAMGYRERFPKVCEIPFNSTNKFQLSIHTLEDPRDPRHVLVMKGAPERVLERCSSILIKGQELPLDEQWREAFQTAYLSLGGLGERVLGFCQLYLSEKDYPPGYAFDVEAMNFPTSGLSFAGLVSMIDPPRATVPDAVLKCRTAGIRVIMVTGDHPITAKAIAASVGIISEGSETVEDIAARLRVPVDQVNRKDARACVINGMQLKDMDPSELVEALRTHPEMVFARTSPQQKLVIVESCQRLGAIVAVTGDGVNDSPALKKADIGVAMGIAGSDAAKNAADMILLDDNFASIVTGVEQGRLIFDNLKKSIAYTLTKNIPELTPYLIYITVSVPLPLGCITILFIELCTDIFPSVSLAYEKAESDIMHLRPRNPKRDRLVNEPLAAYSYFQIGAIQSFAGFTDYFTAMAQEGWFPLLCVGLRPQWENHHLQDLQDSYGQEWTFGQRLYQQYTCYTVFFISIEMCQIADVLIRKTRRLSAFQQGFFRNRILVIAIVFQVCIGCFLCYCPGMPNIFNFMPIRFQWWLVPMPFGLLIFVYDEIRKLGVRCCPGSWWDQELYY
T2 sequence (P18434 whole entry partner): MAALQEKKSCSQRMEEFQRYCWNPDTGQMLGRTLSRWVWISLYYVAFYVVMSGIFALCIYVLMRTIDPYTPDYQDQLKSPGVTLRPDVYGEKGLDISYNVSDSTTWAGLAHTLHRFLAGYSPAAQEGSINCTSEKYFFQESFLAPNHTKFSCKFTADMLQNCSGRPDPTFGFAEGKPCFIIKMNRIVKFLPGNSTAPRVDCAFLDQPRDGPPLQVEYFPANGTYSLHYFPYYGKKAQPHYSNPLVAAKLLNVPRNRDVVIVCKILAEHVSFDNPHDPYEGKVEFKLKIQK
Procedure: The vesicles were lyophilized and kept at -70° C.
To all […] groups, was added 100 μl of lyophilized vesicles prepared in Experiment 4-1 at the concentration of 100 μg protein 1 ml. Then, 5 mM Pipes/Tris buffer(pH 6.4 ) was added to the three groups until the volume of test tubes became 150 μl. After the preincubation for 15 minutes, H^+ /K^+ ATPase activity was measured in accordance with the same procedures as in Experiment 4-2. The concentrations of the test substances as indicated above are the final concentrations.
After the completion of preincubation, each group was diluted 50 times with 5 mM Pipes/Tris buffer(pH 6.4), and then centrifuged for 60 minutes by means of Beckman ultracentrifuge(Model L8-80). The supernatant was discarded and the pellet was suspended with 5 mM Pipes/Tris buffer pH 6.4 until the volume became the same as the preincubation volume.

[3] = test system: gastric secretion stimulated by pentagastrin; assay: Inhibition of gastric secretion stimulated by pentagastrin (Experiment 3-2); type: in vivo, Sprague-Dawley male rats; conditions: intravenous; for ED50: Rattus norvegicus
Procedure: The same procedures as in Experiment 3-1 were carried out, except that as a secretion stimulating substance, pentagastrin was infused into the left jugular vein of the rats at a dosage of 24 μg/2 ml/200 g/hr.

For `COc1cccc2c(N3CCc4ccccc4C3C)nc(Nc3ccc(F)cc3C)nc12.Cl` (centres unmarked) [Example 34, 8-Methoxy-2-(4-Fluoro-2-Methyl-Phenylamino)-4-(1-Methyl-1,2,3,4-Tetrahydroisoquinoline-2-Yl)Quinazoline Hydrochloride], the Effect ratio ([1]; IC50 of Omeprazole / IC50 of test compound) was 5.45, the IC50 ([1]; K+-stimulated H+/K+ ATPase activity, rabbit gastric microsomes, pH 7.2, 37° C., 15 min prereaction, 30 min reaction, read-out: IC50 of test compound, inhibition (50%) of the proton pump activity) was 1.7 µM and the “Reversibility of the inhibition of the enzyme activity” value [2] was “reversible”. The “Inhibition of H+/K+ ATPase activity after Dilution and Washout” value [2] was 16%, the “Inhibition of H+/K+ ATPase activity before Dilution and Washout” value [2] was 84% and the “The gastric secretion inhibition” value ([3]; 1.0 mg/kg) was 41.2%. For the same compound, the “The gastric secretion inhibition” value ([3]; 3.0 mg/kg) was 77.0%, the “The gastric secretion inhibition” value ([3]; 5.0 mg/kg) was 110.2% and the ED50 [3] was 1.31 mg/kg.
`COc1ccc2[nH]c([S+]([O-])Cc3ncc(C)c(OC)c3C)nc2c1` (centres unmarked) [Omeprazole, omeprazole, reference compound] was tested, and the IC50 ([1]; comparative compound, value printed on the line of each test compound, read-out: IC50 of Omeprazole, inhibition (50%) of the proton pump activity) was 9.5 µM and 9.3 µM, the “Reversibility of the inhibition of the enzyme activity” value [2] was “irreversible” and the “Inhibition of H+/K+ ATPase activity after Dilution and Washout” value [2] was 67%. For the same compound, the “Inhibition of H+/K+ ATPase activity before Dilution and Washout” value [2] was 80%, the “The gastric secretion inhibition” value ([3]; 0.3 mg/kg) was 5.0% and the “The gastric secretion inhibition” value ([3]; 0.5 mg/kg) was 63.1%. The “The gastric secretion inhibition” value ([3]; 1.0 mg/kg) was 114.3% and the ED50 [3] was 0.47 mg/kg.
